Patent publication US11524950B2, “Treatment of immune-related and inflammatory diseases” (Celgene Corporation, priority 2012, dated 2022)

What was measured:
CD44 = CD44 expression in B cell differentiation culture (flow cytometry); type: cell-based, human; conditions: Day 7; for percentage of CD20high/CD44high cells: DMSO 22.2%
Method: Immunophenotyping For Flow Cytometric Analysis: Cells were stained using multicolor direct immunofluorescence stain for flow cytometric analysis. Surface staining was performed before cell fixation and permeabilization. Cells (50 μl; 1×10^6 cells/ml in washing buffer, 2% FBS with 0.1% NaN3 in PBS) were used for each staining. The cells were stained with isotype control mAb ([…]) and multicolor FITC-conjugated anti-CD20 mAb and PE-conjugated anti-CD38 mAb, or PerCP-Cy5.5 conjugated anti-CD44 mAb, PE-conjugated anti-CD83 mAb were used for day 4 activated B cells (CD20+CD38-cells), and day 4 PBs and day 7 PBs (CD20-CD38+), and other staining, analyzed by flow cytometry as per manufacturer's instructions. The intracellular staining of transcription factor proteins (BCL-6, IRF-4, BLIMP-1, PAX-5 and XBP-1) and IgJ was performed according to the manufacturer's recommendations. Flow cytometric analysis was performed with a FACSCanto using FACSDiva 6 (BD Biosciences). For data analysis, Flowjo (Tree Star) software was used.
Using the same B cells in vitro differentiation system, the activity of the test compound on CD44 and CD83 expression in B cell differentiation was further investigated. Multicolor FITC-conjugated anti-CD20 mAb, PerCP Cy5.5-conjugated anti-CD44 mAb and PE-conjugated anti-CD83 mAb are used for day 4 and day 7 cells. The effect of the test compound was evaluated from 3 separate experiments representative of 3 donors.

SSc fibroblasts = assay: Fibrotic gene expression in SSc skin fibroblasts (real time PCR); type: cell-based, human; conditions: 24 hours
Method: Cell cultures: Human normal and scleroderma skin fibroblasts were cultured in DMEM containing 10% fetal bovine serum (FBS). The cells were maintained in a humidified 5% CO2, 95% air incubator at 37° C. After confluence was reached, the cells were harvested with 0.05% trypsin and subcultured. Cells were used in the 3rd-5th passage.
Experimental design: Cells were grown to 70-80% confluence and placed into quiescent state by a reduction in serum concentration to 0.4% for overnight. The effects of the compound on TGFβ fibrotic effects and on NL and SSc fibrotic gene expression were tested.
Effects of the compound on SSc-FB: SSc fibrobasts were treated with the compound at different concentration and gene expression levels of Collagen 1A1 (COL1), α-smooth muscle actin (α-SMA), fibronectin (FN), matrix metallopeptidase 1 (MMP1), plasminogen activator inhibitor (PAI), and DNA (cytosine-5-)-methyltransferase 1 (Dnmt1) were determined 24 hours later by real time PCR.
Quantitative Real-Time PCR: Total RNA was extracted from cells using RNeasy kit. RNA concentration was measured and 1 ug of RNA was reverse transcribed to cDNA using RT-First strand kit. The cDNA was then amplified using respective primers and Power SYBR Green PCR Master Mix. The amplicon (150-200 bp) was detected by ABI 7500 Real Time PCR System. All the target genes were normalized to GAPDH and relative fold changes were calculated. Each sample was assessed in triplicate.

O=C1CC[C@H](N2Cc3c(OCc4ccc(CN5CCOCC5)cc4)cccc3C2=O)C(=O)N1 [Test compound, (S)-3-[4-(4-morphlin-4-ylmethylbenzyloxy)-1-oxo-1,3-dihydro-isoindo-2-yl]piperidine-2,6-dione]
CD44 mean fluorescence intensity (MFI) (CD44): dose-dependently and significantly decreased
percentage of CD20high/CD44high cells (CD44; 2 nM): 18.4%
percentage of CD20high/CD44high cells (CD44; 20 nM): 10.1%
percentage of CD20high/CD44high cells (CD44; 200 nM): 6.6%
expression of COL1 mRNA (SSc fibroblasts): dose dependently reduced
expression of Dnmt1 (SSc fibroblasts): dose dependently reduced
expression of FN mRNA (SSc fibroblasts): dose dependently reduced
expression of MMP-1 (SSc fibroblasts): dose dependently increased
expression of PAI (SSc fibroblasts): dose dependently reduced
expression of aSMA mRNA (SSc fibroblasts): dose dependently reduced
